Values quoted from earlier work as cited in patent US5948887A, “Polypeptides that include conformation-constraining groups which flank a protein--protein interaction site” (Virginia Commonwealth University, priority 1997, dated 1999).
Where a SMILES comes first, the peptide text is derived from it.

Tested on: receptors of sweet tasting papillae
Conditions: comparison value

times sweeter than sugar: 160 times
SMILES: COC(=O)[C@H](Cc1ccccc1)NC(=O)[C@@H](N)CC(=O)O [aspartame] (H-Asp-Phe-OMe)
